Measurements taken from PMC11596610 (Molecules, 2024).
Like-named read-outs stand apart in the source and are kept apart here.

Experiments:
[1] = Cytotoxicity assay with the rat L6 cell line (resazurin); type: cell-based
Protocol: Cultures were maintained at 37 °C in an atmosphere of 5% CO2. […] Plates were incubated at 37 °C under a 5% CO2 atmosphere for 24 h. After that, compounds were dissolved in DMSO (10 mM or 10 mg/mL), serial drug dilutions of eleven 3-fold dilution steps covering a range from 100 to 0.002 μg/mL or 100 to 0.002 µM were prepared, and the plates incubated at 37 °C under 5% CO2 for 70 h. […] The results were expressed as percentage of the untreated controls. Fifty percent inhibitory concentrations (IC50) were estimated by linear interpolation.

[2] = system: P. falciparum strain NF54; assay: [3H]-hypoxanthine incorporation assay, antiplasmodial activity; type: cell-based; conditions: Plasmodium falciparum
Protocol: Compounds were dissolved in DMSO at 10 mM, serial dilutions prepared in hypoxanthine-free culture medium (7-step dilution series; 2-fold serial dilutions) and 100 μL aliquots were dispensed in duplicates into 96-well cell culture plates. […] After incubation for 48 h, 0.25 μCi of [^3H]-hypoxanthine was added per well and plates were incubated for an additional 24 h. Parasites were harvested onto glass-fiber filters using a Microbeta FilterMate cell harvester (Perkin Elmer, Waltham, MA, USA) and radioactivity was counted using a MicroBeta2 liquid scintillation counter (Perkin Elmer, Waltham, MA, USA).

[3] = system: S. mansoni newly transformed schistosomula (NTS); assay: Drug assay against S. mansoni NTS; type: cell-based, Schistosoma mansoni; conditions: for IC50: Schistosoma mansoni
Description: Harvested S. mansoni cercariae (Liberian strain) obtained from infected Biomphalaria glabrata snails were mechanically transformed into newly transformed schistosomula (NTS) following standard procedures as described. Artesunate and praziquantel were previously tested in the drug assay against S. mansoni NTS [39]. […] Culture medium was composed of M199 medium (Gibco, Waltham MA, USA) supplemented with 5% Horse Serum (Gibco, Waltham MA, USA), 1% penicillin/streptomycin mixture (Invitrogen, Carlsbad, CA, USA, 100 U/mL) and 1% Mäser Mix. Each compound was tested in triplicate. NTS incubated with no more than 1% DMSO served as control. NTS were kept in the incubator at 37 °C and 5% CO2 for up to 72 h. After 24, 48 and 72 h, the condition of the NTS was microscopically evaluated.

S. mansoni adult worms = assay: Drug assay against ex vivo S. mansoni adult worms; type: cell-based, Schistosoma mansoni; conditions: for IC50: Schistosoma mansoni
Protocol: Female NMRI mice (age 3 weeks, weight ca. 14–20 g) were purchased from Charles River (Sulzfeld, Germany). […] To obtain adult schistosomes, NMRI mice were infected subcutaneously with 80 to 100 cercariae. After 49 days, the mice were euthanized with CO2 and the worms collected from the hepatic portal and mesenteric veins. […] Each compound was tested in duplicate. Artesunate and praziquantel were previously tested in the drug assay against S. mansoni adult worms. Schistosomes incubation with no more than 1% DMSO served as control. Worms were kept in an incubator at 37 °C and 5% CO2 for up to 72 h. After 24, 48 and 72 h, the condition of the worms was microscopically evaluated and scored as described above.

S. mansoni = assay: Drug assay in vivo in S. mansoni-infected mice; parameters: species or system mice (NMRI); conditions: single oral dose 200 mg/kg
Protocol: The in vivo study was carried out in accordance with Swiss national and cantonal regulations on animal welfare under the permission number 545. Female mice (NMRI strain; 3-week-old; weight ca. 20–22 g) were purchased from Charles River, Germany. Rodents were kept under environmentally controlled conditions (temperature ~25 °C; humidity ~70%; 12 h light, 12 h dark cycle) with free access to water and rodent diet, and acclimatized for one week before infection. […]. Untreated mice (n = 4) served as controls in all experiments. Two weeks post-treatment mice were dissected and all worms counted. Worm burden reductions were calculated.

[4] = P. falciparum NF54, 3H-hypoxanthine incorporation, mean of 2 independent determinations, read-out: NF54 IC50

| SMILES | IC50 [2, 4] | IC50 ([3]; 24 h) | IC50 ([3]; 48 h) | IC50 ([3]; 72 h) | Effect in % ± SD ([3]; test conc. 1 µM, 24 h) | Effect in % ± SD ([3]; test conc. 1 µM, 48 h) | Effect in % ± SD ([3]; test conc. 1 µM, 72 h) | Effect in % ± SD ([3]; test conc. 10 µM, 24 h) | Effect in % ± SD ([3]; test conc. 10 µM, 48 h) | Effect in % ± SD ([3]; test conc. 10 µM, 72 h) | CC50 at 70 h ([1]; rat) | IC50 (S. mansoni adult worms; 24 h) | IC50 (S. mansoni adult worms; 48 h) | IC50 (S. mansoni adult worms; 72 h) | Effect in % ± SD (S. mansoni adult worms; test conc. 10 µM, 24 h) | Effect in % ± SD (S. mansoni adult worms; test conc. 10 µM, 48 h) | Effect in % ± SD (S. mansoni adult worms; test conc. 10 µM, 72 h) | Effect in % ± SD (S. mansoni adult worms; test conc. 25 µM, 24 h) | Effect in % ± SD (S. mansoni adult worms; test conc. 25 µM, 48 h) | Effect in % ± SD (S. mansoni adult worms; test conc. 25 µM, 72 h) | other results |
| --- | --- | --- | --- | --- | --- | --- | --- | --- | --- | --- | --- | --- | --- | --- | --- | --- | --- | --- | --- | --- | --- |
| COc1cc([C@@H]2c3cc4c(cc3[C@H](O)[C@H]3COC(=O)[C@H]23)OCO4)cc(OC)c1OC [Podophyllotoxin, podophyllotoxin, reference compound] |  |  |  |  |  |  |  |  |  |  |  |  |  |  |  |  |  |  |  |  | CC50 at 70 h ([1]; rat L6 cells, 70 h incubation, resazurin, read-out: L6 CC50): 10 nM |
| C[C@H]1[C@H](OC(=O)CCC(=O)O)O[C@@H]2O[C@@]3(C)CC[C@H]4[C@H](C)CC[C@@H]1[C@@]24OO3 [artesunate, reference compound] |  |  |  |  |  |  |  |  |  |  |  |  |  |  |  |  |  |  |  |  | IC50 ([2]; P. falciparum NF54, reference compounds, values printed in ng/mL, read-out: NF54 IC50): 1.52 ng/mL |
| CC1=C(Cc2ccc(C(F)(F)F)cc2)C(=O)C2=CC=CCC2(C)C1=O (racemic) [Product 2, (±)-3,4a-dimethyl-2-(4-(trifluoromethyl)benzyl)-4a,5-dihydronaphthalene-1,4-dione] | 2390 ± 825 nM | 17400 nM | 8500 nM | 1700 nM | 20.75 ± 0% | 32.08 ± 0% | 36.73 ± 2% | 34.52 ± 6.2% | 51.43 ± 8.6% | 86.79 ± 1.9% | 25600 nM | 22700 nM | 17300 nM | 15200 nM | 42.75 ± 1% | 48.05 ± 2.9% | 50 ± 0% | 44.4 ± 0% | 49.05 ± 0.9% | 51.9 ± 0% |  |
| CCN(CC)CCCC(C)Nc1ccnc2cc(Cl)ccc12 (stereo not shown) [CQ diphosphate, Chloroquine diphosphate, reference compound] |  |  |  |  |  |  |  |  |  |  |  |  |  |  |  |  |  |  |  |  | IC50 ([2]; NF54, read-out: NF54 IC50): 4 ng/mL |
| CC1=C(Cc2ccc(C(F)(F)F)cc2)C(=O)C2(C)CC=CC=C2C1=O (racemic) [Product 1, (±)-2,4a-dimethyl-3-(4-(trifluoromethyl)benzyl)-4a,5-dihydronaphthalene-1,4-dione] | 1850 ± 458 nM | 2700 nM | 2400 nM | 2000 nM | 18.87 ± 1.9% | 26.42 ± 1.9% | 28.57 ± 2% | 34.59 ± 1.3% | 35.35 ± 0.7% | 71.70 ± 9.4% | 22500 nM | 800 nM | 200 nM | 600 nM | 53.7 ± 0.9% | 65.65 ± 3.1% | 66.7 ± 2.1% | 70.4 ± 3.7% | 73.15 ± 2.8% | 88.9 ± 0% | Effect in % ± SD ([3]; test conc. 25 µM, 24 h): 100 ± 0%; Effect in % ± SD ([3]; test conc. 25 µM, 48 h): 100 ± 0%; Effect in % ± SD ([3]; test conc. 25 µM, 72 h): 100 ± 0%; Total WBR (worm burden reduction) (S. mansoni): 15.7%; Cures (S. mansoni; cured/treated): 0/4; Mean Number of Worms (SD) Females (S. mansoni; two weeks post-treatment): 10.8 (1.0); Mean Number of Worms (SD) Liver (S. mansoni; two weeks post-treatment): 0; Mean Number of Worms (SD) Mesenteric Veins (S. mansoni; two weeks post-treatment): 21.5 (1.9); Mean Number of Worms (SD) Total (S. mansoni; two weeks post-treatment): 21.5 (1.9); Effect in % ± SD (S. mansoni adult worms; test conc. 1 µM, 24 h): 53.3 ± 0%; Effect in % ± SD (S. mansoni adult worms; test conc. 1 µM, 48 h): 58.3 ± 0%; Effect in % ± SD (S. mansoni adult worms; test conc. 1 µM, 72 h): 59.15 ± 0.8% |
